Laboratory results taken from ChEMBL document CHEMBL1201862, “PubChem BioAssay data set” (2004).
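1) Cells in 96-well plates. 2) Compound, 48 h, 5 concentrations. 3) Linear interpolation between surrounding doses. 4) Unreached endpoint = highest concentration. GI50 marks 50% less growth.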 Active and inactive are the calls of the source. Cut-off read from the data, not from the text of the source: active = GI50 up to about 1.1 µM and inactive = higher.

Experiments:
Test in all cases: NCI tumour cell line growth inhibition, 48 h
CAKI-1 = tested on: CAKI-1
CCRF-CEM = tested on: CCRF-CEM
HCC 2998 = tested on: HCC 2998
HCT-116 = tested on: HCT-116
K562 = tested on: K562
MDA-MB-435 = tested on: MDA-MB-435
MDA-N = tested on: MDA-N
OVCAR-3 = tested on: OVCAR-3
OVCAR-4 = tested on: OVCAR-4
PC-3 = tested on: PC-3
RXF 393 = tested on: RXF 393
SF-539 = tested on: SF-539
SK-MEL-5 = tested on: SK-MEL-5
SR = tested on: SR
TK-10 = tested on: TK-10
UACC-62 = tested on: UACC-62
UO-31 = tested on: UO-31
HL-60 = tested on: HL-60
LOX IMVI = tested on: LOX IMVI

SMILES	GI50 (CAKI-1)	GI50 (CCRF-CEM)	GI50 (HCC 2998)	GI50 (HCT-116)	GI50 (K562)	GI50 (MDA-MB-435)	GI50 (MDA-N)	GI50 (OVCAR-3)	GI50 (OVCAR-4)	GI50 (PC-3)	GI50 (RXF 393)	GI50 (SF-539)	GI50 (SK-MEL-5)	GI50 (SR)	GI50 (TK-10)	GI50 (UACC-62)	GI50 (UO-31)	GI50 (HL-60)	GI50 (LOX IMVI)
N#CCCN(CCC#N)c1ccc(C(=N/c2ccc(F)cc2)/N=N/c2ccc(Cl)cc2)cc1	> 100 µM (inactive)	> 100 µM (inactive)	> 100 µM (inactive)	> 100 µM (inactive)	> 100 µM (inactive)	> 100 µM (inactive)	> 100 µM (inactive)	> 100 µM (inactive)	> 100 µM (inactive)	> 100 µM (inactive)	> 100 µM (inactive)	> 100 µM (inactive)	> 100 µM (inactive)	> 100 µM (inactive)	> 100 µM (inactive)	> 100 µM (inactive)	> 100 µM (inactive)	–	–
N#Cc1ccc(Nc2nc3[nH]cnc3c(=O)[nH]2)cc1	> 100 µM (inactive)	> 100 µM (inactive)	> 100 µM (inactive)	> 100 µM (inactive)	–	> 100 µM (inactive)	> 100 µM (inactive)	> 100 µM (inactive)	> 100 µM (inactive)	> 100 µM (inactive)	–	> 100 µM (inactive)	> 100 µM (inactive)	> 100 µM (inactive)	> 100 µM (inactive)	> 100 µM (inactive)	> 100 µM (inactive)	> 100 µM (inactive)	> 100 µM (inactive)
CS(=O)(=O)OCCN1CCC2(CC1)SSC1(CCN(CCOS(C)(=O)=O)CC1)S2	21.8 µM (inactive)	–	–	53.2 µM (inactive)	64.4 µM (inactive)	> 100 µM (inactive)	75.5 µM (inactive)	29.2 µM (inactive)	62.1 µM (inactive)	44.7 µM (inactive)	–	27.7 µM (inactive)	16.1 µM (inactive)	14.1 µM (inactive)	15.7 µM (inactive)	30.1 µM (inactive)	45 µM (inactive)	24.3 µM (inactive)	19.8 µM (inactive)
Nc1ccc(CCSSCCc2ccc(N)cc2)cc1	26.4 µM (inactive)	1.38 µM (inactive)	17.6 µM (inactive)	16.1 µM (inactive)	6.4 µM (inactive)	26.9 µM (inactive)	27.7 µM (inactive)	31.6 µM (inactive)	28.6 µM (inactive)	29.4 µM (inactive)	21.8 µM (inactive)	24.9 µM (inactive)	19.8 µM (inactive)	0.991 µM (active)	36.1 µM (inactive)	26.5 µM (inactive)	22.7 µM (inactive)	–	21.9 µM (inactive)
COc1ccc2c(c1)OCC1(O)Cc3ccccc3OC21 (stereo unspecified)	> 100 µM (inactive)	> 100 µM (inactive)	> 100 µM (inactive)	> 100 µM (inactive)	> 100 µM (inactive)	> 100 µM (inactive)	> 100 µM (inactive)	> 100 µM (inactive)	49.3 µM (inactive)	> 100 µM (inactive)	–	> 100 µM (inactive)	> 100 µM (inactive)	> 100 µM (inactive)	> 100 µM (inactive)	> 100 µM (inactive)	> 100 µM (inactive)	–	> 100 µM (inactive)
O=C(O)Cn1cc([N+](=O)[O-])c(=O)c2ccccc21	> 100 µM (inactive)	> 100 µM (inactive)	> 100 µM (inactive)	> 100 µM (inactive)	> 100 µM (inactive)	> 100 µM (inactive)	> 100 µM (inactive)	> 100 µM (inactive)	–	> 100 µM (inactive)	–	> 100 µM (inactive)	> 100 µM (inactive)	> 100 µM (inactive)	> 100 µM (inactive)	> 100 µM (inactive)	> 100 µM (inactive)	> 100 µM (inactive)	–
